# Target: Calcium-activated potassium channel subunit alpha-1 (Homo sapiens) (UniProt Q12791)
# Test: Activation of human BKalpha channel expressed in CHOK1 cells assessed as increase in ionic current at 30 uM by patch clamp method relative to control
# Assay type: cell-based
# Details: CHO-K1
# Chain of Calcium-activated potassium channel subunit alpha-1 (Homo sapiens) (Q12791 whole entry): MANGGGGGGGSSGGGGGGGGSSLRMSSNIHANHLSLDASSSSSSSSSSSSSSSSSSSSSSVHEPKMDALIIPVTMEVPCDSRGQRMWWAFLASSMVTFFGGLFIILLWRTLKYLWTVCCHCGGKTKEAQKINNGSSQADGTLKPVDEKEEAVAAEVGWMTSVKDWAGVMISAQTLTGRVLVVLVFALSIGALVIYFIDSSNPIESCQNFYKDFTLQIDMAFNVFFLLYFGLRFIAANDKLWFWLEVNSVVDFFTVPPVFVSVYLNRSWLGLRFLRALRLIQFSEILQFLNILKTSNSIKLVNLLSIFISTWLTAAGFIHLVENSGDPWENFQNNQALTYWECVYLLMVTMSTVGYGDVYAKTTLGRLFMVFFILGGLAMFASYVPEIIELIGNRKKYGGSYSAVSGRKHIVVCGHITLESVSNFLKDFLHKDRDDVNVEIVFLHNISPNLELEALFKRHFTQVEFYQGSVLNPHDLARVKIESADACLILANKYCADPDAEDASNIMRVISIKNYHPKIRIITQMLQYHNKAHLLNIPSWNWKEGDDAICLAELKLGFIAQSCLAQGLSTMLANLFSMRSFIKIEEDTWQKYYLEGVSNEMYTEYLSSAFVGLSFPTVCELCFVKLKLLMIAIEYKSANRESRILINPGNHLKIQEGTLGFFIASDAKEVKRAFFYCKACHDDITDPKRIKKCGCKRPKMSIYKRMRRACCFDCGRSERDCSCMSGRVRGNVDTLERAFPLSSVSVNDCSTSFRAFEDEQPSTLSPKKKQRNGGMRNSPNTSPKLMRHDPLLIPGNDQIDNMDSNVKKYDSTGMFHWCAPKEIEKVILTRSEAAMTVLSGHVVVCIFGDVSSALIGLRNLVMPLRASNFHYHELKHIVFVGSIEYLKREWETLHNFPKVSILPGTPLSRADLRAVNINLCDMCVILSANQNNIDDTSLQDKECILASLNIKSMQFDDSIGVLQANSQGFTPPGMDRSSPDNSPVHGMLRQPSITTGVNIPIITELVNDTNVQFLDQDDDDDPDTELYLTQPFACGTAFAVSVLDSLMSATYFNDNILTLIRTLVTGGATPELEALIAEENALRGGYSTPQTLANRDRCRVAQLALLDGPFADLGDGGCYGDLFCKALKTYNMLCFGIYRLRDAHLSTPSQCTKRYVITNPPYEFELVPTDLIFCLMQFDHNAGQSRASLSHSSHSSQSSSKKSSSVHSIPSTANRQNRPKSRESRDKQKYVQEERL
row,Activity [%],SMILES
1,425,C#CCO/N=C1\C[C@H]2[C@](C)(C(=O)O)CCC[C@]2(C)c2cc(Cl)c(C(C)C)c(Cl)c21
2,410,CO/N=C1\C[C@H]2[C@](C)(C(=O)O)CCC[C@]2(C)c2cc(Cl)c(C(C)C)c(Cl)c21

# The remaining lines, values behind:
row,SMILES,Activity [%]
1,O=c1[nH]c2cc(C(F)(F)F)ccc2n1-c1cc(C(F)(F)F)ccc1O,325
2,CC(C)c1c(Cl)cc2c(c1Cl)/C(=N/O)C[C@H]1[C@](C)(C(=O)O)CCC[C@]21C,242
3,C=CCO/N=C1\C[C@H]2[C@](C)(C(=O)O)CCC[C@]2(C)c2cc(Cl)c(C(C)C)c(Cl)c21,566

# Reference: ChEMBL document CHEMBL1141013, “Novel oxime and oxime ether derivatives of 12,14-dichlorodehydroabietic acid: design, synthesis, and BK channel-opening activity” (Bioorg Med Chem Lett, 2008)
